Measurements: patent publication US20190315711A1 (eXIthera Pharmaceuticals, Inc., priority 2016, published 2019)

Tests used:
[1] = target: T1, Factor Xa (Homo sapiens, UniProt P00742); assay: Dose response assay for protease inhibitors: Factor Xa; format: biochemical; details: ratio versus Factor XIa
T1 construct: Factor Xa; 0.2 μM in 50% glycerol (9.2 μg/mL)

[2] = target: T2, Thrombin (Homo sapiens, UniProt P00734); assay: Dose response assay for protease inhibitors: thrombin; format: biochemical; details: ratio versus Factor XIa
T2 construct: Thrombin; 0.2 μM in 50% glycerol (7.34 μg/mL)

[3] = target: T3, Trypsin (Bos taurus, UniProt P00760); assay: Dose response assay for protease inhibitors: trypsin; format: biochemical; details: ratio versus Factor XIa
T3 construct: gene PRSS1
T3 sequence (P00760 24-246): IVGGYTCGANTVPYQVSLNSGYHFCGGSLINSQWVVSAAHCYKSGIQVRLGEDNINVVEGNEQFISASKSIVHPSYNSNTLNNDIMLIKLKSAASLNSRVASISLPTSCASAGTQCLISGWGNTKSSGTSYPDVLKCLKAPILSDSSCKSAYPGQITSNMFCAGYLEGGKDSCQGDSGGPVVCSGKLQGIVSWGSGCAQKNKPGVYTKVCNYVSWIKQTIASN
Method: • Assay buffer: 20 mM Hepes, pH 7.4; 150 mM NaCl; 0.02% Tween 20 • Compounds: 10 mM stocks in DMSO • Substrate: 20 mM Glp-Pro-Arg-AMC, 25 mg/2.3 mL H2O (store at +4° C.) [Factor XIa, thrombin, and trypsin] • 20 mM Pro-Phe-Arg-AMC (Bachem I-1295), 25 mg/2.2 mL H2O or Boc-Leu-Gly-Arg-AMC (Bachem I-1105), 25 mg/2.07 mL H2O (store at +4° C.) [Factor Xa] • Enzyme: Factor XIa; 0.25 M in 50% glycerol (20 μg/mL) • Trypsin; 0.2 μM in 50% glycerol (4.8 μg/mL) • Thrombin; 0.2 μM in 50% glycerol (7.34 μg/mL) • Factor Xa; 0.2 μM in 50% glycerol (9.2 μg/mL)
• 1. Dilute the substrate to 100 μM in assay buffer (30 μL/6 mL). The enzyme is diluted to 0.5 nM just prior to use (12 L/6 mL for Factor XIa; 15 μL/6 mL for all of the rest.) • 2. Pipette 50 μL of substrate into each well of the 96 well (12×8) microtiter plate. (Column 1 is used as the 100% activity control and receives no compound, and Column 12 is the blank and receives no enzyme.) Add an additional 46 μL to column 2. • 3. Pipette 4 μL of each compound into the appropriate well in column 2 of the plate (unknowns assayed in triplicate, standard assayed in duplicate). The final compound concentration will be 1/50th of the stock. • 4. Serially two-fold dilute the compound by mixing the sample in column 2, removing 50 μL to the next well (column 3), mix and remove to column 4, etc. until column 11. After mixing column 11, remove 50 μL and discard. • 5. Pipette 50 μL of buffer into column 12. Initiate the reaction by adding 50 μL of enzyme solution to each well of columns 1-11 as rapidly as possible. • 6. Read the plate in a spectrophotometer (SpectraMax) at 30° C., wherein each well is measured every 60 s for 30 min. For Factor Xa assays, each well is measured every 1 min for a total of 60 min. • 7. For Factor XIa assays, the compounds are assayed, in duplicate, at 3 different starting concentrations, 20, 2, and 0.2 μM; 1:10, 1:100, and 1:1000 dilution of 10 mM stock or at 2, 0.2, and 0.02 μM; 1:100, 1:1000, and 1:10,000 dilution of 10 mM stock. Data for each concentration are combined for graphing and data fitting. • 8. Data can be used both for estimation of IC50 and for estimation of Kon.

[4] = Caco-2 cell permeability assay (A-B and B-A); format: in vitro ADME; details: human; for Papp A→B at 60 min, 10 μM: A-B direction; for Papp B→A at 40 min, 10 μM: B-A direction
Method: The following procedure was used to determine the ability of a test compound to cross Caco-2 cells (human intestinal epithelial cells derived from a colorectal adenocarcinoma). The cells were seeded at 1×10^5 cells/cm^2 in 96-well Multiscreen™ plates (Millipore). Permeability assays were performed with the cells at days 21-25 post-seeding. Cells are typically used for 15 consecutive passages in culture.
This assay can be performed in either the apical to basolateral (A−B) or basolateral to apical (B−A) direction. The test compound was prepared at 10 μM in HBSS-MES (pH 6.5) or HBSS-HEPES (pH 7.4) with a final DMSO concentration of 1%. The working solution was then centrifuged and the supernatant added to the donor side. The assay plate was incubated at 37° C. with gentle shaking for 60 min or 40 min for the A−B or B−A assay, respectively. Samples were aliquoted from the donor side at time zero and the end point, and from the receiver side at the end point.
Reference compounds, propranolol (highly permeable), labetalol (moderately permeable), ranitidine (poorly permeable), and colchicine (P-glycoprotein substrate) were included in each assay.
Samples are analyzed by HPLC-MS/MS using selected reaction monitoring. The HPLC system consists of a binary LC pump with autosampler, a C-18 column, and a gradient.
The apparent permeability coefficient (Papp) of the test compound (Equation 2) and its recovery (Equation 3) are calculated as follows: […]
wherein A is the surface area of the cell monolayer (0.11 cm^2), C is concentration of the test compound expressed as peak area, D denotes donor, and R is receiver. “0”, “mid,” and “end” denote time at zero, mid-point, and end of the incubation, respectively. At is the incubation time. V is the volume of the donor or receiver.
This is most likely due to non-specific binding or degradation.

[5] = Plasma protein binding by equilibrium dialysis; format: in vitro ADME; details: both sexes, pooled plasma, pH 7.4, human plasma protein binding, read-out: PPB
Method: The following procedure was used to determine the plasma protein binding of a test compound in pooled plasma from human (mixed gender) via equilibrium dialysis in a 96-well plate format. The dialysate compartment was loaded with phosphate-buffered saline (pH 7.4) and the sample side was loaded with plasma spiked with the test compound at a concentration of 10 μM. After loading, samples were covered and incubated for 4 hours at 37° C. After incubation, each compartment was sampled, diluted with acetonitrile/buffer and centrifuged. The supernatants were analyzed by HPLC-MS/MS. The analyte peak areas obtained from HPLC-MS/MS analysis of each sample were used to calculate protein binding according to the following equation (Equation 4):
where: AREAp=Peak area of analyte in protein matrix; AREAb=Peak area of analyte in buffer. The amount measured in the plasma compartment included both free and bound drug, while that on the buffer side represented free drug only; the differences were used to calculate the percentage plasma protein bound. Three reference compounds were tested in each assay: acebutolol, quinidine and warfarin.

T1 sequence (P00742 235-488 limits assumed): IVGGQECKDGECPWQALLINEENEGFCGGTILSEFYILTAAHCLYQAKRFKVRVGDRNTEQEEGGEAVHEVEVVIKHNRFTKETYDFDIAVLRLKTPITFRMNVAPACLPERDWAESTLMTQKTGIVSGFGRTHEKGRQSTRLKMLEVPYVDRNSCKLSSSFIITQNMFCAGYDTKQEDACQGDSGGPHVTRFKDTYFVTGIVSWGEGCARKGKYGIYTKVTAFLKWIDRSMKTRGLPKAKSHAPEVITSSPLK
T1 sequence (P00742 41-179 partner limits assumed): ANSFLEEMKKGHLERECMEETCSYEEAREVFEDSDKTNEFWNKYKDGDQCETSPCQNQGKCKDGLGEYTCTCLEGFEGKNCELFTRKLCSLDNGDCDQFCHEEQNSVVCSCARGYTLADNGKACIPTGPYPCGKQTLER

| SMILES | FXa/FXIa (selectivity ratio) [1] | Ratio: Thrombin/FXIa [2] | Ratio: Trypsin/FXIa [3] | Papp A→B at 60 min, 10 μM [4] [×10⁻⁶ cm/s] | Papp B→A at 40 min, 10 μM [4] [×10⁻⁶ cm/s] | fraction unbound at 4 h, 10 μM [5] |
| --- | --- | --- | --- | --- | --- | --- |
| Cc1ccccc1N(C)C(=O)[C@@H]1[C@@H](Cc2ccnc(N)c2)C(=O)N1C(=O)N[C@@H](C1CCCCC1)C(F)(F)F [Compound 15] | H (“H” indicates 101-1000) | G (“G” indicates 1-100) | G (“G” indicates 1-100) | 11 to 30 | ≤ 10 | < 0.05 |
| CN(C(=O)[C@@H]1[C@@H](Cc2ccnc(N)c2)C(=O)N1C(=O)N[C@@H](C1CCCCC1)C(F)(F)F)c1cccnc1 [Compound 17] | H (“H” indicates 101-1000) | G (“G” indicates 1-100) | G (“G” indicates 1-100) | 11 to 30 | 11 to 30 | 0.1 to 0.5 |
| CN(C(=O)[C@@H]1[C@@H](Cc2ccnc(N)c2)C(=O)N1C(=O)N[C@@H](C1CCCCC1)C(F)(F)F)c1ccncc1 [Compound 18] | I (“I” indicates >500) | H (“H” indicates 101-1000) | G (“G” indicates 1-100) | 11 to 30 | 11 to 30 | 0.1 to 0.5 |
| CN(C(=O)[C@@H]1[C@@H](Cc2ccnc(N)c2)C(=O)N1C(=O)N[C@@H](C1CCCCC1)C(F)(F)F)c1cncnc1 [Compound 19] | H (“H” indicates 101-1000) | G (“G” indicates 1-100) | G (“G” indicates 1-100) | 11 to 30 | 31 to 50 | 0.05 to 0.09 |
| CN(C(=O)[C@@H]1[C@@H](Cc2ccnc(N)c2)C(=O)N1C(=O)N[C@@H](C1CCCCC1)C(F)(F)F)c1ncccn1 [Compound 21] | I (“I” indicates >500) | H (“H” indicates 101-1000) | G (“G” indicates 1-100) | 11 to 30 | ≤ 10 | < 0.05 |
| CN(C(=O)[C@@H]1[C@@H](Cc2ccnc(N)c2)C(=O)N1C(=O)N[C@@H](C1CCCCC1)C(F)(F)F)c1cccc(F)c1 [Compound 22] | H (“H” indicates 101-1000) | G (“G” indicates 1-100) | G (“G” indicates 1-100) | 11 to 30 | ≤ 10 | < 0.05 |
| CCN(C(=O)[C@@H]1[C@@H](Cc2ccnc(N)c2)C(=O)N1C(=O)N[C@@H](C1CCCCC1)C(F)(F)F)c1ccccc1 [Compound 24] | H (“H” indicates 101-1000) | G (“G” indicates 1-100) | G (“G” indicates 1-100) | 11 to 30 | ≤ 10 | < 0.05 |
| CC[C@@H](NC(=O)N1C(=O)[C@H](Cc2ccnc(N)c2)[C@H]1C(=O)N(C)c1ccncc1)C1CCCCC1 [Compound 25] | I (“I” indicates >500) | I (“I” indicates >500) | G (“G” indicates 1-100) | ≤ 10 | 31 to 50 | 0.1 to 0.5 |
| CC[C@@H](NC(=O)N1C(=O)[C@H](Cc2ccnc(N)c2)[C@H]1C(=O)N(C)c1ccccc1)C1CCCCC1 [Compound 27] | I (“I” indicates >500) | H (“H” indicates 101-1000) | G (“G” indicates 1-100) | 11 to 30 | 11 to 30 | 0.05 to 0.09 |
| CC[C@@H](NC(=O)N1C(=O)[C@H](Cc2ccnc(N)c2)[C@H]1C(=O)N(CC)c1ncccn1)C1CCCCC1 [Compound 39] | I (“I” indicates >500) | I (“I” indicates >500) | G (“G” indicates 1-100) | 11 to 30 | 11 to 30 | – |
| CN(C(=O)[C@@H]1[C@@H](Cc2ccnc(N)c2)C(=O)N1C(=O)N[C@@H](C1CC1)C(F)(F)F)c1ccncc1 [Compound 77] | H (“H” indicates 101-1000) | H (“H” indicates 101-1000) | – | ≤ 10 | 31 to 50 | < 0.5 |
| CN(C(=O)[C@@H]1[C@@H](Cc2ccnc(N)c2)C(=O)N1C(=O)N[C@@H](C1CC1)C(F)(F)F)c1ncccn1 [Compound 78] | I (“I” indicates >500) | H (“H” indicates 101-1000) | – | 11 to 30 | > 50 | 0.1 to 0.5 |
